Test results as given in patent US20250368633A1, “AZEPINE FUSED RING COMPOUND AS RIPK1 INHIBITOR AND USE THEREOF” (ARTIVILA BIOPHARMA, priority 2022, published 2025).

Assays:
[1] = test system: U937 cells; experiment: Inhibition rate of compound (1 μM) on necroptosis of U937 cells (TSZ-induced, CellTiter-Glo); format: cell-based; settings: TSZ (hTNF-α, SM-164, Z-VAD-FMK) 20 hours
How it was run: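 Percent inhibition comes from ATP luminescence (CellTiter-Glo), referenced to wells without TSZ and wells with TSZ alone. The compound was added to U937 cells 15 min ahead of a TNF-α/SM-164/Z-VAD-FMK mix, followed by 20 h culture at 37° C, 5% CO2.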

[2] = test system: U937 cells; experiment: EC50 of necroptosis inhibition in U937 cells (TSZ-induced, CellTiter-Glo); format: cell-based; settings: Homo sapiens, U-937; TSZ (hTNF-α, SM-164, Z-VAD-FMK) 20 hours; 10 concentration points; read-out: EC50 intervals of necroptosis inhibition in U937 cells
How it was run: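 Luminescent ATP readout (CellTiter-Glo) after 20 h gave viability of TSZ-challenged U937 cells; compounds were added 15 min ahead of TNF-α/SM-164/Z-VAD-FMK. EC50 derived by variable-slope nonlinear regression of inhibition relative to no-TSZ and TSZ-alone controls.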

[3] = molecular target: T1, RIPK1 kinase (Homo sapiens, UniProt Q13546); experiment: In vitro RIPK1 kinase activity assay (ADP-Glo), inhibition by compounds at 1 μM; format: biochemical; settings: compound 1 μM; ATP 10 μM; MBP substrate 100 μg/mL; read-out: RIPK1 kinase activity inhibition rate range
T1 construct: purchased Promega VA7593
T1 sequence (Q13546 1-671): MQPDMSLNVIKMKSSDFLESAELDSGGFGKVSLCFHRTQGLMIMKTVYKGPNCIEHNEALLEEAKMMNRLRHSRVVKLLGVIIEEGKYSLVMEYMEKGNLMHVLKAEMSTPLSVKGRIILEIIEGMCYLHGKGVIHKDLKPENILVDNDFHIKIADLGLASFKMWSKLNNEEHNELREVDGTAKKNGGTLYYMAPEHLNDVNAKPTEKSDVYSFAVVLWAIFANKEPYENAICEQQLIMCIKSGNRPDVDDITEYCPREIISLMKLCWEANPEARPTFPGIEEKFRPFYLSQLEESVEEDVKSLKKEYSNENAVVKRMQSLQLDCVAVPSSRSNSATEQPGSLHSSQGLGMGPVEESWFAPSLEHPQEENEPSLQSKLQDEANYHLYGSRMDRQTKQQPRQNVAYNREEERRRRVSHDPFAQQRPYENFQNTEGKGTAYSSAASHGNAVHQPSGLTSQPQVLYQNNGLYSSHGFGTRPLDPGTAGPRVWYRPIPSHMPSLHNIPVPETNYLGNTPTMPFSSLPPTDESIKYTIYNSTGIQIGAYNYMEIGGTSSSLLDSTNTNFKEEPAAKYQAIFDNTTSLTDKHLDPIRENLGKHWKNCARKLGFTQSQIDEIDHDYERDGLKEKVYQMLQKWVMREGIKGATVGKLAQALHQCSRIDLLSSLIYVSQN
How it was run: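 Read by ADP-Glo chemiluminescence as percent inhibition: RIPK1 kinase, 15-min room-temperature compound preincubation, then 1-h reaction with MBP (100 μg/mL final) and ATP (10 μM final). Enzyme level was set by titration.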

| SMILES | Inhibition rate range of compounds (1 μM) on U937 cell necroptosis [1] | EC50 [2] [nM] | inhibition at 1 µM [3] [%] |
| --- | --- | --- | --- |
| C[C@H](O)C#Cc1ccc2c(c1)N(C)C(=O)[C@@H](NC(=O)C(=O)NCCc1ccccc1)CO2 [Example 30, N^1-((S)-7-((S)-3-hydroxybut-1-yn-1-yl)-5-methyl-4-oxo-2,3,4,5-tetrahydrobenzo[b][1,4]oxazepin-3-yl)-N^2-phenethyloxalamide] | A (A: ≥90%) | 100 to 500 | 50 to 74 |
| CN1C(=O)[C@@H](NC(=O)C(=O)NCc2ccccc2F)COc2ccc(C#CCCO)cc21 [Example 38, (S)—N^1-(2-fluorobenzyl)-N^2-(7-(4-hydroxybut-1-yn-1-yl)-5-methyl-4-oxo-2,3,4,5-tetrahydrobenzo[b][1,4]oxazepin-3-yl)oxalamide] | A (A: ≥90%) | 100 to 500 | 50 to 74 |
| CN1C(=O)[C@@H](NC(=O)C(=O)NCCc2ccccc2)COc2ccc(C#CCN3CCNCC3)cc21 [Example 49, (S)—N^1-(5-methyl-4-oxo-7-(3-(piperazin-1-yl)prop-1-yn-1-yl)-2,3,4,5-tetrahydrobenzo[b][1,4]oxazepin-3-yl)-N^2-phenethyloxalamide] | A (A: ≥90%) | 100 to 500 | 50 to 74 |
| CN1C(=O)[C@@H](NC(=O)C(=O)NCCc2ccccc2)COc2ccc(C#CC3CCN(CCOCCOCC(=O)OC(C)(C)C)CC3)cc21 [Example 53, tert-butyl (S)-2-(2-(2-(4-((5-methyl-4-oxo-3-(2-oxo-2-(phenethylamino)acetamido)-2,3,4,5-tetrahydrobenzo[b][1,4]oxazepin-7-yl)ethynyl)piperidin-1-yl)ethoxy)ethoxy)acetate] | A (A: ≥90%) | < 100 | 25 to 49 |
| CN1C(=O)[C@@H](NC(=O)C(=O)NCCc2ccccc2)COc2ccc(C#CC3CCN(CCOCCOCC(=O)O)CC3)cc21 [Example 54, (S)-1-(2-(2-(carboxymethoxy)ethoxy)ethyl)-4-((5-methyl-4-oxo-3-(2-oxo-2-(phenethylamino)acetamido)-2,3,4,5-tetrahydrobenzo[b][1,4]oxazepin-7-yl)ethynyl)piperidin-1-ium 2,2,2-trifluoroacetate] | B (B: 50-89%) | 500 to 2000 | 50 to 74 |
| Cc1ncsc1-c1ccc(CNC(=O)[C@@H]2C[C@@H](O)CN2C(=O)[C@@H](NC(=O)COCCOCCN2CCC(C#Cc3ccc4c(c3)N(C)C(=O)[C@@H](NC(=O)C(=O)NCCc3ccccc3)CO4)CC2)C(C)(C)C)cc1 [Example 55, N^1-((S)-7-((1-(2-(2-(2-(((S)-1-((2S,4R)-4-hydroxy-2-((4-(4-methylthiazol-5-yl)benzyl)carbamoyl)pyrrolidin-1-yl)-3,3-dimethyl-1-oxobutan-2-yl)amino)-2-oxoethoxy)ethoxy)ethyl)piperidin-4-yl)ethynyl)-5-methyl-4-oxo-2,3,4,5-tetrahydrobenzo[b][1,4]oxazepin-3-yl)-N^2-phenethyloxalamide] | A (A: ≥90%) | < 100 | 50 to 74 |
| CN1C(=O)[C@@H](NC(=O)C(=O)NCCc2ccccc2)COc2ccc(C#CC3CCN(CCOCCOCC(=O)Nc4cccc5c4CN(C4CCC(=O)NC4=O)C5=O)CC3)cc21 (stereo partly drawn) [Example 56, N^1-((3S)-7-((1-(2-(2-(2-(2-(2,6-dioxopiperidin-3-yl)-(1-oxoisoindolin-4-yl)amino)-2-oxoethoxy)ethoxy)ethyl)piperidin-4-yl)ethynyl)-5-methyl-4-oxo-2,3,4,5-tetrahydrobenzo[b][1,4]oxazepin-3-yl)-N^2-phenethyloxalamide] | A (A: ≥90%) | < 100 | 25 to 49 |
| CN1C(=O)[C@@H](NC(=O)C(=O)NCCc2ccccc2)COc2ccccc21 [Example 57, (S)—N^1-(5-methyl-4-oxo-2,3,4,5-tetrahydrobenzo[b][1,4]oxazepin-3-yl)-N^2-phenethyloxalamide] | A (A: ≥90%) | 100 to 500 | ≥ 75 |
| CN1C(=O)[C@@H](NC(=O)C(=O)NCc2ccccc2)COc2ccccc21 [Example 58, (S)—N^1-benzyl-N^2-(5-methyl-4-oxo-2,3,4,5-tetrahydrobenzo[b][1,4]oxazepin-3-yl)oxalamide] | B (B: 50-89%) | 500 to 2000 | 25 to 49 |
| CN1C(=O)C(NC(=O)C(=O)NCCc2ccccc2)CCc2cc(Br)ccc21 (stereo not drawn) [Example 63, N^1-(7-bromo-1-methyl-2-oxo-2,3,4,5-tetrahydro-1H-benzo[b]azepin-3-yl)-N^2-phenethyloxalamide] | A (A: ≥90%) | 100 to 500 | 25 to 49 |
| CN1C(=O)C(NC(=O)C(=O)NCc2ccccc2)CCc2ccccc21 (stereo not drawn) [Example 68, N^1-benzyl-N^2-(1-methyl-2-oxo-2,3,4,5-tetrahydro-1H-benzo[b]azepin-3-yl)oxalamide] | B (B: 50-89%) | 500 to 2000 | ≥ 75 |
| CN1C(=O)C(NC(=O)C(=O)NCCc2ccccc2)CCc2cccnc21 (stereo not drawn) [Example 69, N^1-(9-methyl-8-oxo-6,7,8,9-tetrahydro-5H-pyrido[2,3-b]azepin-7-yl)-N^2-phenethyloxalamide] | B (B: 50-89%) | 500 to 2000 | ≥ 75 |
| CN1C(=O)[C@H](NC(=O)C(=O)NCCc2ccccc2)COc2ccc(Br)cc21 [Example 71, (R)—N^1-(7-bromo-5-methyl-4-oxo-2,3,4,5-tetrahydrobenzo[b][1,4]oxazepin-3-yl)-N^2-phenethyloxalamide] | B (B: 50-89%) | 500 to 2000 | 50 to 74 |
| CN1C(=O)[C@@H](NC(=O)C(=O)NCCc2ccccc2)COc2ccc(C#CCn3ccnc3)cc21 [Example 72, (S)—N^1-(7-(3-(1H-imidazol-1-yl)prop-1-yn-1-yl)-5-methyl-4-oxo-2,3,4,5-tetrahydrobenzo[b][1,4]oxazepin-3-yl)-N^2-phenethyloxalamide] | A (A: ≥90%) | < 100 | ≥ 75 |
| CN1CCC(C#Cc2ccc3c(c2)N(C)C(=O)[C@@H](NC(=O)C(=O)NCCc2ccccc2)CO3)CC1 [Example 73, (S)—N^1-(5-methyl-7-((1-methylpiperidin-4-yl)ethynyl)-4-oxo-2,3,4,5-tetrahydrobenzo[b][1,4]oxazepin-3-yl)-N^2-phenethyloxalamide] | A (A: ≥90%) | < 100 | ≥ 75 |
| CN(C)c1ccc(C#Cc2ccc3c(c2)N(C)C(=O)[C@@H](NC(=O)C(=O)NCCc2ccccc2)CO3)cc1 [Example 75, (S)—N^1-(7-((4-(dimethylamino)phenyl)ethynyl)-5-methyl-4-oxo-2,3,4,5-tetrahydrobenzo[b][1,4]oxazepin-3-yl)-N^2-phenethyloxalamide] | A (A: ≥90%) | < 100 | 25 to 49 |
| CN1C(=O)[C@@H](NC(=O)C(=O)NCCc2ccccc2)COc2ccc(C#CCN3CCN(CCO)CC3)cc21 [Example 83, (S)—N^1-(7-(3-(4-(2-hydroxyethyl)piperazin-1-yl)prop-1-yn-1-yl)-5-methyl-4-oxo-2,3,4,5-tetrahydrobenzo[b][1,4]oxazepin-3-yl)-N^2-phenethyloxalamide] | A (A: ≥90%) | < 100 | ≥ 75 |
| CN1C(=O)[C@@H](NC(=O)C(=O)NCCc2ccccc2)COc2ccc(C#CCN)cc21.Cl [Example 87, (S)—N^1-(7-(3-aminoprop-1-yn-1-yl)-5-methyl-4-oxo-2,3,4,5-tetrahydrobenzo[b][1,4]oxazepin-3-yl)-N^2-phenethyloxalamide hydrochloride] | B (B: 50-89%) | 500 to 2000 | 25 to 49 |
